Experimental data from US20110020362A1, “Adrenergic stimulation mediates hypersensitivity by inducing nerve growth factor expression” (priority 2009, published 2011).
“Also recorded” adds a separate entry of the source.

Experiments:
[1] = test system: rats subjected to heterotypic chronic stress; experiment: Viscero-motor response (VMR) to graded colorectal distension after nine-day heterotypic chronic stress; assay type: in vivo, rat; settings: for heterotypic chronic stress-induced increase in viscero-motor response to colorectal distension: entire nine-day HeCS, post-HeCS vs baseline
Method: Two electrodes were implanted under general 2% isofluorane anesthesia in the external oblique abdominal muscle and exteriorized in the subscapular region. Rats were allowed one week to recover from surgery. Under 2% isofluoruthane anesthesia, a 5 cm long balloon constructed from a surgical glove finger and attached to tygon tubing was inserted 7 cm into the descending colon and rectum. Rats were placed in small Lucite cubicles (20×8×8 cm) and allowed to adapt for 30 minutes. colorectal distension was performed by rapidly inflating the balloon to constant pressures: 20, 30, 40, 50, 60 & 80 mm Hg, for 20 seconds followed by 2-minute rest. Electromygraphic (EMG) activity from the external oblique muscle was recorded on Biopac equipment (Biopac Systmes, Inc., Santa Barbara, Calif.). The EMG signal was amplified, filtered at 300 Hz and digitized. The area under the curve (AUC) for the EMG signal during each 20 seconds of distention was calculated using Acknowledge software (Biopac Systmes, Inc). The net value for each distension period was calculated by subtracting the baseline value derived from the average AUC for 20 seconds before and 20 seconds after the distention period.
(§1) A catheter (ReCathco) was inserted through the occipital membrane onto the top of the spinal cord. The end of the catheter rested at about L1. After measurement of baseline response to colorectal distension, the catheter was primed with the appropriate solution and connected to subcutaneously implanted osmotic pump (Durect Corporation, Cupertino, Calif.) filled with appropriate solution. The pump delivered a constant infusion of 0.93 μL/hour for 10.6 days. K252a, a non-specific antagonist of tyrosine kinase receptors (trk) including the high affinity trkA receptors (11), was dissolved in DMSO and administered in sterile saline containing 10% DMSO at a concentration of 0.067 mg/mL. Each rat received an initial bolus infusion of 0.67 μg followed by 1.5 μg/day from the osmotic pump. Previously validated anti-sense and missense oligonucleotides were used (12), TrkA antisense: […] (SEQ ID NO: 1) and mismatch: […] (SEQ ID NO: 2). Oligos were HPLC purified and purchased from Invitrogen. Rats received an initial bolus dose of 10 nmole in 10 uL. The catheter was attached to the pump, which delivered oligo at a rate of 0.5 nmole/hour. Stress protocol started 24-hours after attachment of the pump. Nerve growth factor neutralizing antibody (16 μg/kg i.p. in 0.5) was purchased from R&D systems (Minneapolis, Minn.) and reconstituted in phosphate buffered saline (PBS). Control rats received PBS containing an equal concentration of goat non-immune serum.

[2] = test system: mucosal afferent mechanoreceptors; settings: IBS patients; cited from earlier work
nerve growth factor = experiment: Nerve growth factor expression in distal colon tissue strips incubated in vitro with norepinephrine; assay type: cell-based, rat
Method: The distal colon, about 6 cm long was opened along the mesentery and dissected free of mucosa/submucosa and submucosal plexus. Tissues were either snap frozen in liquid nitrogen or washed in Hanks balanced salt solution and incubated in DME+10% fetal calf serum+penicillin/streptomycin containing norepinephrine for 24-hours. Tissue was homogenized in PBS+protease inhibitor cocktail purchased from Sigma and centrifuged at 13,000 g for 10 minutes. Nerve growth factor protein was measured by ELISA from R&D Systems (Minneapolis, Minn.).

[3] = test system: TL colon dorsal root ganglia neurons; experiment: Patch-clamp electrophysiology of DiI-labeled colon-specific TL dorsal root ganglia neurons from treated rats; assay type: in vivo, rat
Method: The lipid soluble fluorescent dye 1,1′dioleyl-3,3,3′,3′-tetramethylindocarbocyanine methanesulfonate (DiI-I), 25 mg in 0.5 mL methanol, was injected in 2 μL volumes at eight to ten sites in distal colon wall starting at the pelvic girdle and moving toward the cecum. TL dorsal root ganglia neurons were isolated from dorsal root ganglia T13, L1 and L2 were dissected out and put in an ice-cold, oxygenated dissecting solution, containing (in mM): 130 NaCI, 5 KCI, 2 KH2PO4, 1.5 CaCl2, 6 MgSO4, glucose, and 10 HEPES, pH 7.2 (osmolarity, 305 mOsm), as described (10). Connective tissue free ganglia were transferred to a 10 ml dissecting solution containing collagenase D (1.8 mg/mL, Roche) and trypsin (1.0 mg/mL; Sigma, St. Louis, Mo.), and incubated for 1.5 hours at 34.5° C. DRGs are then taken from the enzyme solution, washed, and put in 2 mL of the dissecting solution containing DNase (0.5 mg/mL; Sigma). Cells were subsequently dissociated by trituration with fire-polished glass pipettes and placed on acid-cleaned glass cover slips. Dorsal root ganglia neurons containing the retrograde label were identified as bright red neurons using fluorescent microscopy with a rhodamine filter (excitation 546, barrier filter at 580) and Hoffman contrast optics. For current clamp experiment, cells were superfused (1.5 mL/min) at room temperature with control external solution containing (in mM): 130 NaCI, 5 KCI, 2 KH2PO4, 2.5 CaCl2, 1 MgCl2, 10 HEPES, and 10 glucose, pH adjusted to 7.4 with NaOH (295-300 mOsm). Recording pipettes pulled from borosilicate glass tubing had resistance of 1-4 MΩ. For perforated patch recording, pipette tip was initially filled with amphotericin-free pipette solution, containing (in mM): 100 KmeSO3, 40 KCI, and 10 HEPES, pH 7.25 adjusted with KOH (osmolarity, 290 mOsm). The pipette was then backfilled with same pipette solution containing amphotericin B (300 μg/ml). Whole cell currents and voltage were recorded with Dagan 3911 patch clamp amplifier; and data were acquired and analyzed by pCLAMP 9.2 (Axon Instruments). The currents were filtered at 2-5 kHz and sampled at 50 or 100 μsec per point.
as §1

[4] = test system: TL colon dorsal root ganglia neurons; experiment: Electrophysiology of TL colon dorsal root ganglia neurons incubated in vitro with nerve growth factor; assay type: cell-based, rat; settings: 24 hours in vitro, high (250 ng/mL) vs low (2.5 ng/mL)
Method: The lipid soluble fluorescent dye 1,1′dioleyl-3,3,3′,3′-tetramethylindocarbocyanine methanesulfonate (DiI-I), 25 mg in 0.5 mL methanol, was injected in 2 μL volumes at eight to ten sites in distal colon wall starting at the pelvic girdle and moving toward the cecum. TL dorsal root ganglia neurons were isolated from dorsal root ganglia T13, L1 and L2 were dissected out and put in an ice-cold, oxygenated dissecting solution, containing (in mM): 130 NaCI, 5 KCI, 2 KH2PO4, 1.5 CaCl2, 6 MgSO4, glucose, and 10 HEPES, pH 7.2 (osmolarity, 305 mOsm), as described (10). Connective tissue free ganglia were transferred to a 10 ml dissecting solution containing collagenase D (1.8 mg/mL, Roche) and trypsin (1.0 mg/mL; Sigma, St. Louis, Mo.), and incubated for 1.5 hours at 34.5° C. DRGs are then taken from the enzyme solution, washed, and put in 2 mL of the dissecting solution containing DNase (0.5 mg/mL; Sigma). Cells were subsequently dissociated by trituration with fire-polished glass pipettes and placed on acid-cleaned glass cover slips. […] Whole cell currents and voltage were recorded with Dagan 3911 patch clamp amplifier; and data were acquired and analyzed by pCLAMP 9.2 (Axon Instruments). […]

[5] = exogenous administration; cited from earlier work
trkA = experiment: Western blot of trkA expression in dorsal root ganglia after intrathecal oligonucleotide; assay type: in vivo, rat
Method: as §1

[6] = intrathecal oligonucleotide, bolus 10 nmole then 0.5 nmole/hour
[7] = HeCS rats, 200 μg/kg intraluminal in distal colon one day before HeCS
[8] = sham stressed rats, 200 μg/kg intraluminal in distal colon
[9] = HeCS rats, intrathecal application
[10] = in vitro incubation for 24 hours

Question: With “MM oligonucleotide: mismatch control oligonucleotide: CAACATCGAAGTGACGAGACCG (SEQ ID NO: 2) (listed as DNA, chemistry not given here)” as the compound, how does the “heterotypic chronic stress-induced increase in viscero-motor response to colorectal distension” value [1, 6] read?
Answer: significant increase

Question: For `CCN(CC)CC(=O)Nc1c(C)cccc1C` [lidocaine], which “pain-perception to rapid balloon distension” value [2] is on record?
Answer: does not affect

Question: What about the “sensory perception to slow distension” value [2] of the same compound?
Answer: blocks

Question: For astressin, which “norepinephrine-induced expression of nerve growth factor in mucosa/submucosa” value (nerve growth factor; in vitro, with norepinephrine) is on record?
Answer: blocked this increase; also recorded: blocked this effect

Question: What about the “norepinephrine-induced expression of nerve growth factor in muscularis externa/serosa” value (nerve growth factor; in vitro, with norepinephrine) of the same compound?
Answer: had no effect; also recorded: no significant effect

Question: Which “induction of visceral hypersensitivity to colorectal distension” value ([1]; desensitization of afferent nerve endings, 200 μg/kg intraluminal in distal colon one day before HeCS) does the source give for `C=C(C)[C@]12C[C@@H](C)[C@@]34O[C@](Cc5ccccc5)(O[C@@H]1[C@@H]3C=C(COC(=O)Cc1ccc(O)c(OC)c1)C[C@]1(O)C(=O)C(C)=C[C@@H]41)O2` [resiniferatoxin] here?
Answer: blocked the induction of visceral hypersensitivity

Question: And the “HeCS-induced increase in the number of action potentials at 2× rheobase” value [3, 7]?
Answer: significantly blocked

Question: And the “HeCS-induced reduction in rheobase” value [3, 7]?
Answer: significantly blocked

Question: And the resting membrane potential [3, 8]?
Answer: no significant effect

Question: What about the rheobase [3, 8] of the same compound?
Answer: no significant effect

Question: Which results are given for “nerve growth factor: neurotrophin, nerve growth factor (NGF), applied to neurons in vitro at 250 or 2.5 ng/mL”?
Answer: resting membrane potential [4]: significant decline; rheobase [4]: significant decline; inflammatory hyperalgesia [5]: mimics inflammatory hyperalgesia

Question: For `COC(=O)[C@@]1(O)C[C@H]2O[C@]1(C)n1c3ccccc3c3c4c(c5c6ccccc6n2c5c31)C(=O)NC4` [k252a, K252a], which “heterotypic chronic stress-induced increase in viscero-motor response to colorectal distension” value ([1]; intrathecal osmotic pump, bolus 0.67 μg then 1.5 μg/day) is on record?
Answer: no significant difference

Question: What about the “heterotypic chronic stress-induced increase in viscero-motor response to colorectal distension” value ([1]; intrathecal osmotic pump, bolus 0.67 μg then 1.5 μg/day, listed as k252A) of the same compound?
Answer: suppressed

Question: What about the “HeCS-induced decrease in rheobase” value [3, 9] of the same compound?
Answer: significantly attenuated

Question: And the “HeCS-induced depolarization of resting membrane potential” value [3, 9]?
Answer: significantly attenuated

Question: And the “HeCS-induced increase in the number of action potentials at 2× rheobase” value [3, 9]?
Answer: significantly attenuated

Question: And the “HeCS-induced increase in excitability of TL colon dorsal root ganglia neurons” value ([3]; HeCS rats, intrathecal treatment)?
Answer: blocked

Question: What does the source list for “trkA AS oligonucleotide: TrkA antisense: CATCAACGAAGTCACCAGACCG (SEQ ID NO: 1), previously validated, HPLC purified, from Invitrogen (listed as DNA, chemistry not given here)”?
Answer: heterotypic chronic stress-induced increase in viscero-motor response to colorectal distension [1, 6]: no significant difference; heterotypic chronic stress-induced increase in viscero-motor response to colorectal distension ([1]; intrathecal oligonucleotide, bolus 10 nmole then 0.5 nmole/hour, listed as anti-sense ODN): suppressed; expression of trkA in TL dorsal root ganglia, relative to rats treated with MM oligonucleotide (trkA; intrathecal, catheter tip at about L1): about 50%; trkA levels in LS DRG (trkA; several segments caudal to the catheter tip, vs MM oligonucleotide): No significant difference; trkA levels in thoracic dorsal root ganglion (trkA; several segments rostral to the catheter tip, vs MM oligonucleotide): No significant difference

Question: For `NC[C@H](O)c1ccc(O)c(O)c1` [norepinephrine], which “expression of nerve growth factor in mucosa/submucosa” value (nerve growth factor; [10]) is on record?
Answer: concentration-dependently increased

Question: What about the “expression of nerve growth factor in muscularis externa/serosa” value (nerve growth factor; [10]) of the same compound?
Answer: concentration-dependently increased
